Results published in US8168212B2, “Topical compositions comprising non-proteogenic amino acids and methods of treating skin” (Avon Products, Inc, priority 2007, dated 2012).

Columns and labels:
[1] = test system: LOXL1 regulatory elements (promoter region of the LOXL1 gene); assay: LOXL1 promoter luciferase-reporter assay in transfected fibrosarcoma cells; format: cell-based, human; details: 1 μg/ml, 24 h, HTI080 cells, triplicate tests, p<0.05
From the text: Vector construction, transfection and expression: The promoter region of the LOXL1 gene was isolated and cloned into the pGL3 Luciferase reporter plasmid (Promega) by standard methods known in the art and according to manufacturer's instructions. The LOXL1/pGL3 vector and the control vector pRL-NULL (Promega), containing no regulatory elements, were contransfected into the human fibrosarcoma line HTI080 using LipofectAMINE™ LTX Reagent (Invitrogen) according to manufacturer's directions.
Transfected cells were allowed to recover for 24 h. The culture medium was then replaced with fresh medium containing various concentrations of L-4 Thiazolylalanine, and the transfected cells cultured for an additional 24 h.
The cultures were subsequently washed with PBS and exposed to 100 μl cell lysis buffer/25 cm^2 culture area and gently shaken at room temperature for 30 min. The culture flasks containing the cell lysate were then immediately placed at −80° C.
The activity of the reporter gene, firefly luciferase, was determined according to the manufacturer's instructions (Dual-Luciferase® Reporter Assay System, Promega). Briefly, the activity of the reporter gene is determined relative to that of a control vector encoding a second luciferase gene, that from Renilla reniformis. […]

[2] = test system: calcineurin; assay: Ex-vivo DiFMUP phosphatase assay of calcineurin activity; format: biochemical
Experimental: Ex-vivo phosphatase assay: The modulation of calcineurin activity was monitored using a DiFMUP (6,8-difluoro-7-hydroxy-4-methylcoumarin phosphate) phosphatase assay well characterized in the art (see, e.g., Wegner et al., 2007, Methods Mol. Biol. 365:61-69, hereby incorporated by reference in its entirety). Dephosphorylation of DiFMUP leads to the formation of a highly fluorescent and stable product: […].
Varying concentrations of L-4 Thiazolylalanine were added to a reaction buffer consisting of 50 mM Tris-HCL, pH 7.4, 0.0125% BSA, 0.1 mM CaCl, 400 U/ml calmodulin and 1 mM NiCl. The L-4 Thiazolylalanine/reaction buffer mixture was incubated at 37° C. for 30 min. DiFMU substrate was then added to a concentration of 10 μM, and the mixture returned to 37° C. incubation for a further 15 min. Fluorescence intensity was determined on a Spectrofluorometer.

[3] = test system: β1 integrin; assay: Whole cell ELISA of β1 integrin expression in human dermal fibroblasts; format: cell-based; details: 0.01% (w/v), 24 hours
Experimental: Cell culture: Human dermal fibroblasts (Cascade Biologics) were cultured in growth medium (DMEM, 5% FBS, 1% L-Glut, and 1% antibiotics) overnight in 60 mm dishes at 3.5×10^5 cells/ml. Cells were treated with test active or vehicle control diluted in growth medium and incubated for 24 hours at 37° C.
Whole cell ELISA: A B1 integrin kit from Chemicon International was used to assay the expression of B1 integrin on the cell surface following treatment with L-4 thiazolylalanine Medium was aspirated and plates were incubated at 37° C. with Cell Dissociation Buffer (provided with the kit) for 20-25 minutes, cells were centrifuged and resuspended in DMEM without supplements. 100 μl of the cell suspension was added to microtiter plates precoated with a murine anti-human β1 antibody (Chemicon International) that had been blocked for non-specific binding, and the plates incubated at 37° C. for 2 h. Adherent cells were quantitated by a cell staining kit (Chemicon International) according to manufacturer's instructions. Briefly, plates were washed in PBS and adherent cells stained by incubation for 5 min. at room temperature in the kit staining solution. […] Extraction buffer was then added to each well and the plate read at 570 nm on a spectrophotometer.
The percent change in β1 integrin expression was calculated according to the formula: […]

[4] = test system: fibronectin; assay: Competitive inhibition ELISA of fibronectin in conditioned media of human dermal fibroblasts; format: cell-based; details: 72 hours, P < 0.05
Experimental: Cell culture: Human dermal fibroblasts (Cascade Biologics) were cultured in 12-well tissue culture plates in growth medium (DMEM, 5% FBS, 1% L-Glut, and 1% antibiotics) and incubated for 24 hours at 37° C. Cells treated with test active diluted in growth medium and incubated for 72 hours at 37° C., after which conditioned media was collected and assayed for the presence of fibronectin. […].
Competitive inhibition ELISA: The presence of fibronectin in the test samples was assayed by a competitive ELISA kit (Chemicon International). Briefly, test and control samples of conditioned media were incubated with a HRP-conjugated, rabbit polyclonal anti-human fibronectin antibody at room temperature for about 10 minutes. The sample/antibody mixture was then transferred to a microtiter plate precoated with a standard amount of human fibronectin that had been blocked for non-specific binding. The plate was incubated for one hour at room temperature, followed by a PBS wash and detection of bound antibody (i.e., detection of bound HRP) by routine methods known in the art. The amount of bound antibody is inversely proportional to the amount of fibronectin in the sample.
The percent change in fibronectin expression due to L-4 Thiazolylalanine treatment was calculated according to the formula: […]

[5] = test system: human skin; assay: Human clinical patch study, histology of skin samples (Trichrome collagen and Alcian blue GAG staining); format: in vivo; details: 0.01% solution, topical semi-occlusive patch on outer forearm, 15 applications
Experimental: In order to ascertain the effect of L-4 thiazolylalanine on collagen levels in human skin in vivo, a test was conducted on about 25 women aged 35-65 years. This human clinical study was approved by an Institutional Review Board and informed consent from the subjects was obtained prior to commencement of the study. The study was conducted in accordance with Title 21 of the Code of Federal Regulations, parts 50 and 56.
A solution of 0.01% L-4 Thiazolylalanine was made up in a vehicle of Propylene glycol:Ethanol:Water at a ratio of 70:20:10. The experimental design of the test was as follows: Thiazolylalanine solution or the vehicle solution without thiazolylalanine was applied to the outer forearm on a 2×2 area of skin (@2 mg/cm2) under a semi-occlusive patch for 24 hours, after which the patch was removed and a fresh patch was applied. This was repeated for 5 days (Monday-Friday), then subjects were rested for the weekend. Patch application was continued in the same manner for the next two weeks, for a total of 15 applications. […] The intensity of the collagen and GAG staining was assessed visually under the microscope. […]

[6] = test system: CGRP; assay: CGRP enzyme immunoassay of conditioned medium of PC-12 cells; format: cell-based, rat; details: 0.01%, 24 h, p<0.05
Experimental: Cell culture: PC-12 cells were cultured in FK12 medium supplemented with nerve growth factor according to routine methods known in the art. PC12 cells are derived from a rat pheochromocytoma and terminally differentiate on exposure to nerve growth factor. Once the cells begin to differentiate, they express CGRP. Cultures were incubated in medium containing L-4 Thiazolylalanine for another 24 h. after which conditioned medium was collected and assayed for the presence of CGRP.
CGRP Immunoassay: The presence of CGRP in the test samples was assayed by a sandwich ELISA immunoassay kit. Briefly, test and control samples of conditioned media are mixed with an anti-CGRP antibody conjugated to acetylcholinesterase (the “tracer antibody”), and the mixtures added to plates pre-coated with a monoclonal anti-CGRP antibody (binding to a different epitope of CGRP than the tracer antibody) that had been blocked for non-specific binding. The samples were incubated in the plates and the plates washed and the bound acetylcholinesterase activity determined using Ellman's reagent according to routine methods known in the art. The absorbance of the reagent is directly proportional to the concentration of CGRP in the sample.
The percent change in CGRP expression due to L-4 Thiazolylalanine treatment was calculated according to the formula: […]

## N[C@@H](Cc1cscn1)C(=O)O [L-4 Thiazolylalanine, L-4-thiazolylalanine]
[1]
  increase in expression of the reporter gene: 57%
[2]; 0.0001% weight/volume (lowest concentration tested)
  increase of calcineurin activity: 6%
[2]; 0.001% concentration
  decrease of calcineurin activity: 11%
[2]; 0.01% concentration
  decrease of calcineurin activity: 63%
[2]; estimated
  IC-50 (calcineurin activity), estimated: ~0.064%
[3]
  increase in the expression of B1 integrin: 225%
[4]; Concentration 0.00001%
  Percent Change in fibronectin expression: 54.34% (P < 0.05)
[4]; Concentration 0.0001%
  Percent Change in fibronectin expression: 31.03% (P < 0.05)
[4]; Concentration 0.001%
  Percent Change in fibronectin expression: 36.11% (P < 0.05)
[5]; 13/21 subjects
  subjects with an increase in GAG staining relative to skin treated with the vehicle: 62%
[5]; 18/21 subjects
  subjects with increased collagen staining in treated sites versus vehicle treated site: 86%
[6]
  increase in expression of CGRP: 69.93%
